Read-outs that look alike come from different tables or passages of the source.
What was measured:
[1] = target: T1, protein kinase D3 (PKD3) (Homo sapiens, UniProt O94806); assay: PKD3 TR-FRET (LANCE) kinase assay; type: biochemical
T1 construct: This assay is performed with full length wild-type enzyme that is purchased from Invitrogen; purchased Invitrogen
T1 sequence (O94806 1-890): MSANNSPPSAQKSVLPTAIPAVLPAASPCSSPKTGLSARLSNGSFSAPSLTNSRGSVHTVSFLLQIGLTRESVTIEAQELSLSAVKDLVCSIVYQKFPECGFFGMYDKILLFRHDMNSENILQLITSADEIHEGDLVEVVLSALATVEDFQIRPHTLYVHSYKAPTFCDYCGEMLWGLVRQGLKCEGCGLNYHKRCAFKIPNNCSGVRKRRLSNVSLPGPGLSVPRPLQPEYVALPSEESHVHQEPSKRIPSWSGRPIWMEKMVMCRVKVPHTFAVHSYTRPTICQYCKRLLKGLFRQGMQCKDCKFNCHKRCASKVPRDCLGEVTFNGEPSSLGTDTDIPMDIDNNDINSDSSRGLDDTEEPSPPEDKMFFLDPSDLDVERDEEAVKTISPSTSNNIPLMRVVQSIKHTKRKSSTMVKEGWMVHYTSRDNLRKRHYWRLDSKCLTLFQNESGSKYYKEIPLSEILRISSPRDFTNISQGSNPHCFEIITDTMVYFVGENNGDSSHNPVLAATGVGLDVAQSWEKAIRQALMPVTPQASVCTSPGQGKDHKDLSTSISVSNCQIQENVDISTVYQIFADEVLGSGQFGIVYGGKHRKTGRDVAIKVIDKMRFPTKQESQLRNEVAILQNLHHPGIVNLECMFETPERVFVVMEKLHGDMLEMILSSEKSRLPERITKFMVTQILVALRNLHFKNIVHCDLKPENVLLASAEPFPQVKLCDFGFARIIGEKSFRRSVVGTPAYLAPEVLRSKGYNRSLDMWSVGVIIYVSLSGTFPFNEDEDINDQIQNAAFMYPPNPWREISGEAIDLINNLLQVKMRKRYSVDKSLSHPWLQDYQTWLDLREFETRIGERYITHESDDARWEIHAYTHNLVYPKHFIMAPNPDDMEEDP
Source text: (§1) The assay to measure protein kinase D3 (PKD3) activity is a time-resolved fluorescence resonance transfer (TR-FRET) assay using PerkinElmer's LANCE™ technology. In this case, a biotinylated syntide-2 peptide is used as the substrate in this reaction. Phosphorylation of the syntide-2 substrate is detected by a specific antibody that recognizes the phosphorylated peptide. A second fluorophore, APC, is conjugated to streptavidin that binds the biotinylated syntide-2 peptide. […] Therefore, when the europium labeled secondary antibody binds on the phosphorylated peptide, it is brought into close contact with the APC and excites this fluorophore.
(§2) This assay is performed with full length wild-type enzyme that is purchased from Invitrogen. The reaction buffer consists of 35 mM Tris-HCl pH7.5, 5 mM MgCl2, 0.02% Tween-20, 20 μM ATP, 1 mM DTT and 0.2 μg/mL PKD3 enzyme. The enzyme reaction is initiated by the addition of 2 μM syntide-2 peptide substrate and the reaction carried out for 50 minutes at room temperature. The reaction is stopped by a stop/detection buffer consisting of 50 mM EDTA, 0.18 mg/mL rabbit polyclonal anti-phospho syntide-2 antibody, 0.5 nM europium labeled anti-rabbit IgG and 10 nM streptavidin conjugated APC. After a one hour incubation with the stop/detection buffer, the reaction is read on an Envision 2100 Reader using a LANCET™ Eu/APC dual protocol. […] IC50 values are calculated using an Activity Base (IDBS) software program.

[2] = target: T2, protein kinase D2 (PKD2) (Homo sapiens, UniProt Q9BZL6); assay: PKD2 TR-FRET (LANCE) kinase assay; type: biochemical
T2 construct: This assay is performed with full length wild-type enzyme purchase from Invitrogen; purchased Invitrogen
T2 sequence (Q9BZL6 1-878): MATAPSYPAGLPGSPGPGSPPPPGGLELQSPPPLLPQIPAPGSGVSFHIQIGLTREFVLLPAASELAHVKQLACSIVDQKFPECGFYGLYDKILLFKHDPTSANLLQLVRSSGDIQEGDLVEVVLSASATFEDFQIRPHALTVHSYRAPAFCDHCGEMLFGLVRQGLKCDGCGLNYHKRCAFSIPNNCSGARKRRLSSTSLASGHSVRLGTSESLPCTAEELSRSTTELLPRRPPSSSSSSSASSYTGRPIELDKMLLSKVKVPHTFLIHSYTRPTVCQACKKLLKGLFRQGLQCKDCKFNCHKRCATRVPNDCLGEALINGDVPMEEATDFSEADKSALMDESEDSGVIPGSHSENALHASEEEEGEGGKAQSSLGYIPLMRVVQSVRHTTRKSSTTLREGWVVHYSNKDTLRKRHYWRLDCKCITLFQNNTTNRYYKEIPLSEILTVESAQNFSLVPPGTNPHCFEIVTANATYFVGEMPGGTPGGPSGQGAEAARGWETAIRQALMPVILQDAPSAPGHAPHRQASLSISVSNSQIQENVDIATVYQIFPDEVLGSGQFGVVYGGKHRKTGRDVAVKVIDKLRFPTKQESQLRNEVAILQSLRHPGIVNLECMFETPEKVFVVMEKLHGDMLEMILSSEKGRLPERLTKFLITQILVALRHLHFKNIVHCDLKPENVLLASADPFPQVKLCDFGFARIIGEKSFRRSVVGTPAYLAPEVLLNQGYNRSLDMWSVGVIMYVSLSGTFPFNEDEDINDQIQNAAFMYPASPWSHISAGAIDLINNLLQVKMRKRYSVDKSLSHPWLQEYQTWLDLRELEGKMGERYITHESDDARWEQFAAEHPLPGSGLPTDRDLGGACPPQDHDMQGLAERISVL
Source text: as §1, with “D2 (PKD2)” for “D3 (PKD3)”
as §2, with “purchase” for “that is purchased”, “PKD2” for “PKD3”, “LANCE™” for “LANCET™”

[3] = full length wild-type enzyme, 20 μM ATP, read-out: Inhibitory Activity PKD3
[4] = full length wild-type enzyme, 20 μM ATP, read-out: Inhibitory Activity PKD2

Row | SMILES | IC50 [1, 3] [nM] | IC50 [2, 4] [nM] | IC50 [2] [nM] | IC50 [1] [nM]
1 | CNc1cc(-c2cc3cnccc3c(NCCCO)n2)ccn1 [Example 1] | 227 | 903 | – | –
2 | CNc1cc(-c2cc3cnccc3c(NC)n2)ccn1 [Example 2, 1-Methylamino-3-(2-methylaminopyridin-4-yl)-[2,6]-naphthyridine] | – | – | 753 | 450
3 | c1ccc(Nc2cc(-c3cc4cnccc4c(N4CCNCC4)n3)ccn2)cc1 [Example 4, Phenyl-[4-(1-piperazin-1-yl-[2,6]naphthyridin-3-yl)pyridin-2-yl]amine] | 8 | 40 | – | –
4 | OCCNc1nc(-c2ccnc(NC3CCCCC3)c2)cc2cnccc12 [Example 5, 2-[3-(2-Cyclohexylaminopyridin-4-yl)-[2,6]naphthyridin-1-ylamino]ethanol] | 339 | 1370 | – | –
5 | CC(C)Nc1cc(-c2cc3cnccc3c(NCCO)n2)ccn1 [Example 6, 2-[3-(2-Isopropylaminopyridin-4-yl)-[2,6]naphthyridin-1-ylamino]ethanol] | 120 | 497 | – | –
6 | NC(=O)C1CCN(c2nc(-c3ccnc(NC4CCCCC4)c3)cc3cnccc23)CC1 [Example 10, 1-[3-(2-Cyclohexylaminopyridin-4-yl)-[2,6]naphthyridin-1-yl]piperidine-4-carboxylic acid amide] | 83 | – | 414 | –
7 | CN1CCN(c2nc(-c3ccnc(NC4CCCCC4)c3)cc3cnccc23)CC1 [Example 13, Cyclohexyl-{4-[1-(4-methylpiperazin-1-yl)-[2,6]naphthyridin-3-yl]pyridin-2-yl}amine] | – | – | 14 | 1
8 | c1cc2c(NC3CCCNC3)nc(-c3ccnc(NC4CCCCC4)c3)cc2cn1 (centres unmarked) [Example 15, [3-(2-Cyclohexylaminopyridin-4-yl)-[2,6]naphthyridin-1-yl]piperidin-3-ylamine] | 19 | 102 | – | –

The next lines start with results.

Row | IC50 [1, 3] [nM] | IC50 [2, 4] [nM] | IC50 [2] [nM] | SMILES | IC50 [1] [nM]
9 | 0.3 | 0.3 | – | c1cc2c(N3CCNCC3)nc(-c3ccnc(NC4CCCCC4)c3)cc2cn1 [Example 3, Cyclohexyl-[4-(1-piperazin-1-yl-[2,6]naphthyridin-3-yl)pyridin-2-yl]amine] | –
10 | 62 | 195 | – | COc1cccc(Nc2cc(-c3cc4cnccc4c(NCCO)n3)ccn2)c1 [Example 7] | –
11 | 58 | 259 | – | CN(C)CCNc1nc(-c2ccnc(NC3CCCCC3)c2)cc2cnccc12 [Example 8, N-[3-(2-Cyclohexylaminopyridin-4-yl)-[2,6]naphthyridin-1-yl]-N′,N′-dimethylethane-1,2-diamine] | –
12 | 39 | 169 | – | CN(C)CCNc1nc(-c2ccnc(Nc3ccccc3)c2)cc2cnccc12 [Example 9, N,N-Dimethyl-N′-[3-(2-phenylaminopyridin-4-yl)-[2,6]naphthyridin-1-yl]-ethane-1,2-diamine] | –
13 | 23 | 137 | – | CC(=O)N1CCN(c2nc(-c3ccnc(NC4CCCCC4)c3)cc3cnccc23)CC1 [Example 11, 1-{4-[3-(2-Cyclohexylaminopyridin-4-yl)-[2,6]naphthyridin-1-yl]piperazin-1-yl}ethanone] | –
14 | 21 | 63 | – | CN(C)CC1CCN(c2nc(-c3ccnc(NC4CCCCC4)c3)cc3cnccc23)CC1 [Example 12, Cyclohexyl-{4-[1-(4-dimethylaminomethylpiperidin-1-yl)-[2,6]naphthyridin-3-yl]pyridin-2-yl}amine] | –
15 | 1 | 6 | – | c1cc2c(NC3CCNC3)nc(-c3ccnc(NC4CCCCC4)c3)cc2cn1 (centres unmarked) [Example 14, [3-(2-Cyclohexylaminopyridin-4-yl)-[2,6]naphthyridin-1-yl]pyrrolidin-3-ylamine] | –
16 | 2 | – | 11 | O=C(NCCO)C1CCN(c2nc(-c3ccnc(NC4CCOCC4)c3)cc3cnccc23)CC1 [Example 16, 1-{3-[2-(Tetrahydropyran-4-ylamino)pyridin-4-yl]-[2,6]naphthyridin-1-yl}piperidine-4-carboxylic acid (2-hydroxyethyl)amide] | –

From patent US20120142685A1, “ORGANIC COMPOUNDS” (priority 2007, published 2012)
